Data as given in US20250296953A1, “3,4-THIAZOLO-STEROIDS AND METHODS OF MAKING AND USING THE SAME” (Arkansas State University - Jonesboro, priority 2018, published 2025).

Legend:
SK-MEL-25 = experiment: Melanoma cytotoxicity assay (resazurin); type: cell-based
Summary of the method: (§1)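 Following 24 h of compound treatment (triplicates, 37° C, 5% CO2) of cells seeded one day earlier at about 4000 per well, viability was gauged with resazurin. IC50 values derive from sigmoidal concentration–viability curves.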

SK-MEL-28 = experiment: Melanoma cytotoxicity assay (resazurin); type: cell-based; conditions: human, 24 h
Summary of the method: as §1

SF-539 = experiment: NCI 60 one dose screen; type: cell-based, human; conditions: one dose; CNS Cancer; SF-539
[1] = system: 60 different human tumor cell lines; experiment: NCI Development Therapeutics Program 60 cell line screen, one dose; type: cell-based
HCT-15 (Colon Cancer) = experiment: NCI 60 one dose screen; type: cell-based, human
SF-295 = experiment: NCI 60 one dose screen; type: cell-based, human; conditions: one dose; CNS Cancer; SF-295

Q: With `C[C@]12CC[C@H]3[C@@H](CC=C4c5sc(Nc6ccccc6)nc5CC[C@@]43C)[C@@H]1CC[C@@H]2O` [IIIa.10, (1S,2R,13R,14S,17S,18S)-7-anilino-2,18-dimethyl-8-thia-6-azapentacyclo[11.7.0.02,10.05,9.014,18]icosa-5(9),6,10-trien-17-ol] as the molecule, how does the IC50 (SK-MEL-25; Homo sapiens, SK-MEL-25 melanoma cells (head prints SK-25), read-out: SK-25 IC50) read?
A: > 20 µM

Q: And the “SK-MEL-25 (% viability)” value (SK-MEL-25; human, 24 h)?
A: 13.15%

Q: And the “SK-MEL-28 (% viability)” value (SK-MEL-28)?
A: 13.79%

Q: And the “Growth Percent” value (SF-539)?
A: −34.31%

Q: What about the “Growth Percent” value ([1]; Breast Cancer, BT-549) of the same molecule?
A: 19.16%

Q: What about the “Growth Percent” value ([1]; Breast Cancer, HS 578T) of the same molecule?
A: 3.65%

Q: And the “Growth Percent” value ([1]; Breast Cancer, MCF7)?
A: 29.18%

Q: What about the “Growth Percent” value ([1]; Breast Cancer, MDA-MB-231/ATCC) of the same molecule?
A: 35.75%

Q: What about the “Growth Percent” value ([1]; Breast Cancer, MDA-MB-468) of the same molecule?
A: −1.00%

Q: What about the “Growth Percent” value ([1]; Breast Cancer, T-47D) of the same molecule?
A: 16.35%

Q: What about the “Growth Percent” value ([1]; CNS Cancer, SF-268) of the same molecule?
A: 9.68%

Q: And the “Growth Percent” value ([1]; CNS Cancer, SNB-19)?
A: 26.54%

Q: What about the “Growth Percent” value ([1]; CNS Cancer, SNB-75) of the same molecule?
A: −5.43%

Q: What about the “Growth Percent” value ([1]; CNS Cancer, U251) of the same molecule?
A: −30.05%

Q: What about the “Growth Percent” value ([1]; Colon Cancer, COLO 205) of the same molecule?
A: 57.13%

Q: And the “Growth Percent” value ([1]; Colon Cancer, HCC-2998)?
A: 98.16%

Q: What about the “Growth Percent” value ([1]; Colon Cancer, HCT-116) of the same molecule?
A: −81.48%

Q: And the “Growth Percent” value ([1]; Colon Cancer, HT29)?
A: −38.50%

Q: And the “Growth Percent” value ([1]; Colon Cancer, KM12)?
A: 15.64%

Q: And the “Growth Percent” value ([1]; Colon Cancer, SW-620)?
A: −19.44%

Q: What about the “Growth Percent” value ([1]; Leukemia, CCRF-CEM) of the same molecule?
A: 0.74%

Q: And the “Growth Percent” value ([1]; Leukemia, HL-60(TB))?
A: 15.69%

Q: And the “Growth Percent” value ([1]; Leukemia, K-562)?
A: 4.96%

Q: And the “Growth Percent” value ([1]; Leukemia, MOLT-4)?
A: 6.79%

Q: And the “Growth Percent” value ([1]; Leukemia, RPMI-8226)?
A: −32.33%

Q: What about the “Growth Percent” value ([1]; Leukemia, SR) of the same molecule?
A: 8.06%

Q: And the “Growth Percent” value ([1]; Melanoma, LOX IMVI)?
A: −81.48%

Q: And the “Growth Percent” value ([1]; Melanoma, M14)?
A: 53.44%

Q: And the “Growth Percent” value ([1]; Melanoma, MALME-3M)?
A: 71.16%

Q: What about the “Growth Percent” value ([1]; Melanoma, MDA-MB-435) of the same molecule?
A: 3.47%

Q: What about the “Growth Percent” value ([1]; Melanoma, SK-MEL-2) of the same molecule?
A: 51.68%

Q: What about the “Growth Percent” value ([1]; Melanoma, SK-MEL-5) of the same molecule?
A: 34.54%

Q: And the “Growth Percent” value ([1]; Melanoma, SK-MEL-28)?
A: 27.28%

Q: And the “Growth Percent” value ([1]; Melanoma, UACC-62)?
A: 39.84%

Q: And the “Growth Percent” value ([1]; Melanoma, UACC-257)?
A: 69.33%

Q: And the “Growth Percent” value ([1]; Non-small Cell Lung Cancer, A549/ATCC)?
A: 57.08%

Q: What about the “Growth Percent” value ([1]; Non-small Cell Lung Cancer, EKVX) of the same molecule?
A: 73.21%

Q: And the “Growth Percent” value ([1]; Non-small Cell Lung Cancer, HOP-62)?
A: 34.18%

Q: What about the “Growth Percent” value ([1]; Non-small Cell Lung Cancer, HOP-92) of the same molecule?
A: 103.92%

Q: And the “Growth Percent” value ([1]; Non-small Cell Lung Cancer, NCI-H23)?
A: 67.34%

Q: What about the “Growth Percent” value ([1]; Non-small Cell Lung Cancer, NCI-H226) of the same molecule?
A: 63.92%

Q: What about the “Growth Percent” value ([1]; Non-small Cell Lung Cancer, NCI-H322M) of the same molecule?
A: 78.38%

Q: And the “Growth Percent” value ([1]; Non-small Cell Lung Cancer, NCI-H460)?
A: 6.06%

Q: And the “Growth Percent” value ([1]; Ovarian Cancer, IGROV1)?
A: 11.15%

Q: What about the “Growth Percent” value ([1]; Ovarian Cancer, NCI/ADR-RES) of the same molecule?
A: 36.29%

Q: And the “Growth Percent” value ([1]; Ovarian Cancer, OVCAR-3)?
A: −31.62%

Q: And the “Growth Percent” value ([1]; Ovarian Cancer, OVCAR-4)?
A: 64.10%

Q: And the “Growth Percent” value ([1]; Ovarian Cancer, OVCAR-5)?
A: 92.21%

Q: And the “Growth Percent” value ([1]; Ovarian Cancer, OVCAR-8)?
A: −8.95%

Q: And the “Growth Percent” value ([1]; Ovarian Cancer, SK-OV-3)?
A: 89.65%

Q: What about the “Growth Percent” value ([1]; Prostate Cancer, DU-145) of the same molecule?
A: 14.25%

Q: And the “Growth Percent” value ([1]; Prostate Cancer, PC-3)?
A: 39.21%

Q: And the “Growth Percent” value ([1]; Renal Cancer, 786-0)?
A: −49.68%

Q: What about the “Growth Percent” value ([1]; Renal Cancer, ACHN) of the same molecule?
A: 36.78%

Q: And the “Growth Percent” value ([1]; Renal Cancer, CAKI-1)?
A: 49.02%

Q: What about the “Growth Percent” value ([1]; Renal Cancer, RXF 393) of the same molecule?
A: −32.33%

Q: And the “Growth Percent” value ([1]; Renal Cancer, SN12C)?
A: 10.11%

Q: What about the “Growth Percent” value ([1]; Renal Cancer, TK-10) of the same molecule?
A: 65.01%

Q: What about the “Growth Percent” value ([1]; Renal Cancer, UO-31) of the same molecule?
A: 26.06%

Q: And the “Growth Percent” value (HCT-15 (Colon Cancer))?
A: −30.18%

Q: And the “Growth Percent” value (SF-295)?
A: 7.36%
